Where two headings read alike, the source gives them in different places.
Key:
dog STING (dSTING) = assay: Dog differential scanning fluorimetry (DSF) assay, thermal shift of dog STING protein; assay type: binding; settings: 100 μM compound, 3 μM recombinant dog STING (residues 149 to 375), 5× SYPRO Orange, 2% DMSO
Text: The protein used for the biophysical experiments was a recombinant dog STING protein comprising its cytosolic cGAMP binding ectodomain. A codon optimized DNA sequence (for expression in Escherichia coli) encoding amino acid residues 149 to 375 of dog STING was synthesized by GeneArt (Regensburg, Germany) and inserted into a pET17b E. coli expression vector. The protein construct encodes an N-terminal 8× His-tag followed by tobacco etch virus protease (TEV) cleavage site and the above STING gene sequence. The resulting protein sequence for the used dog STING protein (SEQ ID No. 1) is listed below:
For expression of the above recombinant dog STING, the construct was transformed into E. coli BL21 DE3 strain and grown in shake flasks in LB-medium at 15° C. Expression was induced by addition of isopropyl β-D-1-thiogalactopyranoside to a final concentration of 1 mM and cultures shaken overnight. Cell pellets were centrifuged and stored at −70° C. until further use. Protein was purified by cell thawing in lysis buffer (20 mM TRIS-HCl, pH 8, 500 mM NaCl, 1 mM DTT, 0.5 mg/ml lysozyme, Complete Protease Inhibitor (Roche) and DNase (Roche)), followed by metal affinity purification using Ni-NTA resins and elution buffer consisting of 20 mM TRIS-HCl, pH 8, 500 mM NaCl, 1 mM DTT, 300 mM imidazole. Cleavage of the His-Tag using TEV-protease took place during dialysis in size exclusion buffer (20 mM TRIS-HCl, pH 8, 100 mM NaCl, 1 mM DTT) over night. To further purify the target protein a reverse Nickel affinity column was used and the flow through was applied to a size exclusion chromatography. The peak fraction was collected and concentrated to 5 mg/mL.
Dye fluorescence is quenched in aqueous environment and increases upon association of the dye with the hydrophobic parts of the unfolding protein. […] The inflection point of the curve represents the “melting” temperature of the protein (Tm) which is calculated numerically using the Boltzmann equation.
The thermal stability of the dog STING protein was measured in assay buffer containing 20 mM Tris, 150 mM NaCl at pH7.5. The assay uses 384-Well qPCR Plates (Catalog #781358, BRAND), Microseal®‘B’ Adhesive Seals for PCR Plates (Catalog #MSB-1001, BIO-RAD) and was run on a CFX384 Real-Time System (Bio-Rad). A DMSO stock solution of SYPRO orange (SIGMA 55692-500UL) was prepared. Compound stock solutions (10 mM in DMSO) were diluted 1:2 in DMSO to an intermediate compound concentration of 5 mM and then further diluted 1:40 in assay buffer resulting in a compound concentration of 125 μM and 2.5% DMSO. Fluorescent dye stock solution (5000× SYPRO Orange) was then mixed with target protein and buffer to a concentration of 15 μM Protein and 25× SYPRO Orange. 2 μl of this protein-dye-mixture was added to 8 μl compound solution. Final volume was 10 μL. 3-6 well positions were used as negative control (protein with 2% DMSO). The plates were prepared for duplicate measurement and centrifuged for 2 min at 1000 g. In the measurement, 160 cycles of 0.5° C. were used (temperature ramp 15 s/cycle, 15° C. to 95° C.).
Final Assay concentrations for compound characterization were 100 μM compound, 3 μM target protein, 5× SYPRO Orange, and 2% DMSO in 10 μl. All dispensing steps were performed using a HamiltonStar pipetting robot (Hamilton).
Dissociation curves were processed in Bio-Rad CFX Manager. Peak type was set to “negative”. Compound codes for screen were assigned in the plate layout.
Two replicates of TM measurements were averaged, and the standard deviation was calculated. In cases of SD>1.5° C. the measurement was repeated.
The melting point (Tm) obtained for STING protein alone was subtracted from T obtained for protein incubated with ligand to generate ΔTm values.

STING = assay: Dog whole blood (dWB) assay, IFNb secretion by ELISA; assay type: cell-based; settings: 4 h incubation at 37° C., % control relative to cGAMP stimulated control, read-out: EC50, cytokine secretion in dog whole blood (dWB) culture system as determined by canine Interferon-beta (IFNb) ELISA
Method: In this assay, freshly collected canine blood is incubated with a STING agonist, and interferon beta levels in the supernatant are quantified by ELISA. […] In accordance with the invention, a combination of a high dDSF and low dWB is especially favorable.
For the detection of STING activation in physiological environment dog whole blood (dWB) was stimulated by the cyclic dinucleotide cGAMP or a test compound. Pathway activity was monitored by measuring the IFNb production.
Compounds were delivered as 10 mM DMSO solution, diluted and transferred by using an Echo acoustic dispenser to the 384well assay plate (Greiner #781182), pre-filled with 10 μl 1× HBSS in each well (10× HBSS (+Ca/+Mg), #14065-049, Gibco). Typically, 8 concentrations were used with the highest concentration at 10 μM in the final assay volume followed by approximately 1:4 dilution steps. DMSO concentration was set to 0.1% in the final assay volume. The 384-well assay plate contained 20 test compounds and DMSO in control and cGAMP standard wells. The dog whole blood was collected as Na-Citrate blood (e.g., 3.8% in Monovettes from Sarstedt) and kept at 4° C. overnight until use in the assay. 80 μl of the whole blood samples were transferred to each well of the 384-well assay plates filled with compound/1×HBSS. Blood plates were kept at room temperature for 60 minutes and continuous shaking with 450 rpm, covered with the lid, but not sealed. A 10× cGAMP assay solution was diluted from a 2 mM stock solution in 1×HBSS immediately before use at room temperature. 10 μl of the 10× cGAMP/HBSS were added to the high control wells, whereas HBSS only was added to all compound and low control wells. After covering assay plates with the lid, blood plates were kept for a 4 h incubation at 37° C. in the incubator, without shaking. For the detection of IFNb in dog plasma the ELISA Kit for Canine Interferon Beta (Biotrend #SEA222Ca) was used. Whole blood assay plates were centrifuged at 1000 g for 10 minutes at 8° C. 40 μl of supernatant was transferred with a 96 well pipetting robotics from the 384 well whole blood plate to the corresponding 96 well ELISA plate, pre-filled with […] assay diluent in each well. Plates were sealed with microplate seals and kept at 4° C. overnight again. ELISA plates were brought to room temperature, followed by a 1 h incubation at 37° C. in the incubator. Detection Reagent A working solution was prepared by diluting Detection Reagent A 1:100 in Assay Reagent A. Liquid was then removed from the 96 well ELISA plate to add 100 μL Detection Reagent A working solution to each well. ELISA plates were covered with the plate sealer and incubated for 1 hour at 37° C. in the incubator. The 1× Wash buffer was prepared by diluting the 30× Wash Buffer Concentrate in H2O. Detection Reagent B working solution was prepared by diluting Detection Reagent B 1:100 in Assay Reagent B. The ELISA plates were washed three times with 350 μl wash buffer and afterwards inverted and blotted against absorbent paper to remove any liquid. 100 μL of Detection Reagent B working solution was added to each well of the ELISA plates, which are then covered with the plate sealer and incubated for 30 minutes at 37° C. in the incubator. After incubation the ELISA assay plates were washed five times with 350 μl wash buffer and were again inverted and blotted against absorbent paper to remove any remaining liquid. 90 μL of TMB Substrate was added to each well of the ELISA plates, which were then covered with the plate sealer and incubated for 15 minutes at 37° C. in the incubator. The reaction was stopped by adding 50 μL stop solution and absorbance was measured at 450 nm immediately.
For data evaluation and calculation, % control calculation of each well was based on the mean of high (cGAMP stimulated control) and mean of low (unstimulated control) controls by using the following standard 4 parameter logistic regression formula: […]

Row | Structure (SMILES) | Delta TM, interaction with dog STING as determined by DSF (dDSF) (dog STING (dSTING)) | EC50 (STING; Canis lupus familiaris) | EC50 (STING)
1 | Cc1cccc2c(-c3cccc4nn(C)cc34)nn(-c3ccc(N4C[C@@H]5CC[C@H]4C[C@H]5C(=O)O)nc3)c12 (single isomer, unassigned) [Example 7] | 15.5 °C |  | 
2 | Cc1cccc2c(-c3cccc4nn(C)cc34)nn(-c3ccc(N4C[C@H]5CC[C@@H]4C[C@@H]5C(=O)O)nc3)c12 (single isomer, unassigned) [Example 8] | 24.8 °C |  | 
3 | Cc1cccc2c(-c3cccc4nn(C)cc34)nn(-c3ccc(N4C[C@@H]5CC[C@H]4C[C@@H]5C(=O)O)nc3)c12 (single isomer, unassigned) [Example 9] | 33.8 °C | 652 nM | 
4 | Cc1cccc2c(-c3cccc4nn(C)cc34)nn(-c3ccc(N4C[C@H]5CC[C@@H]4C[C@H]5C(=O)O)nc3)c12 (single isomer, unassigned) [Example 10] | 35.8 °C | 185 nM | 
5 | CC(=O)N1C[C@H]2CC[C@@H]1CN2c1ccc(-n2nc(-c3cccc4nn(C)cc34)c3cccc(C)c32)cn1 (single isomer, unassigned) [Example 14] | 23.8 °C | 2920 nM | 
6 | CC(=O)N1C[C@@H]2CC[C@H]1CN2c1ccc(-n2nc(-c3cccc4nn(C)cc34)c3cccc(C)c32)cn1 (single isomer, unassigned) [Example 15] | 30.0 °C | 95.1 nM | 
7 | Cc1cccc2c(-c3cccc4nn(C)cc34)nn(-c3ccc(N4C[C@@H]5C[C@H]4C[C@H]5C(=O)O)nc3)c12 (single isomer, unassigned) [Example 18] | 31.5 °C | 519 nM | 
8 | Cc1cccc2c(-c3cccc4nn(C)cc34)nn(-c3ccc(N4C[C@H]5C[C@@H]4C[C@@H]5C(=O)O)nc3)c12 (single isomer, unassigned) [Example 19] | 33.5 °C | 278 nM | 
9 | Cc1cccc2c(-c3cccc4nn(C)cc34)nn(-c3ccc(N4CC[C@H](CC(=O)O)C4)nc3)c12 [Example 1, 2-[(3R)-1-(5-{2″,7-dimethyl-1H,2″H-[3,4″-biindazol]-1-yl}pyridin-2-yl)pyrrolidin-3-yl]acetic acid] |  | 308 nM | 
10 | Cc1cccc2c(-c3cccc4nn(C)cc34)nn(-c3ccc(N4CC[C@@H](CC(=O)O)C4)nc3)c12 [Example 2, 2-[(3S)-1-(5-{2″,7-dimethyl-1H,2″H-[3,4″-biindazol]-1-yl}pyridin-2-yl)pyrrolidin-3-yl]acetic acid] | 33.3 °C | 212 nM | 
11 | Cc1cccc2c(-c3cccc4nn(C)cc34)nn(-c3ccc(N4CCOC(CC(=O)O)C4)nc3)c12 (stereo not drawn) [Example 3, 2-[4-(5-{2′,7-dimethyl-1H,2′H-[3,4′-biindazol]-1-yl}pyridin-2-yl)morpholin-2-yl]acetic acid] | 26.1 °C | 3060 nM | 
12 | Cc1cccc2c(-c3cccc4nn(C)cc34)nn(-c3ccc(N4CC5CC4CC5C(=O)O)nc3)c12 (stereo not drawn) [Example 4, 2-(5-{2″,7-dimethyl-1H,2″H-[3,4″-biindazol]-1-yl}pyridin-2-yl)-2-azabicyclo[2.2.1]heptane-5-carboxylic acid] | 29.0 °C | 704 nM | 
13 | Cc1cccc2c(-c3cccc4nn(C)cc34)nn(-c3ccc(N4CC5CCC4CC5C(=O)O)nc3)c12 (stereo not drawn) [Example 6, 2-(5-{2′,7-dimethyl-1H,2′H-[3,4′-biindazol]-1-yl}pyridin-2-yl)-2-azabicyclo[2.2.2]octane-5-carboxylic acid] | 34.0 °C | 417 nM | 
14 | CC(=O)N1C[C@H]2C[C@@H]1CN2c1ccc(-n2nc(-c3cccc4nn(C)cc34)c3cccc(C)c32)cn1 [Example 11, 1-[(1R,4R)-5-(5-{2″,7-dimethyl-1H,2″H-[3,4″-biindazol]-1-yl}pyridin-2-yl)-2,5-diazabicyclo[2.2.1]heptan-2-yl]ethan-1-one] | 28.3 °C |  | 620 nM
15 | CC(=O)N1CC2CCC1CN2c1ccc(-n2nc(-c3cccc4nn(C)cc34)c3cccc(C)c32)cn1 (stereo not drawn) [Example 13, 1-[5-(5-{2′,7-dimethyl-1H,2′H-[3,4′-biindazol]-1-yl}pyridin-2-yl)-2,5-diazabicyclo[2.2.2]octan-2-yl]ethan-1-one] | 28.3 °C | 282 nM | 

Source: patent US20240174642A1, “HETEROCYCLIC COMPOUNDS CAPABLE OF ACTIVATING STING” (Boehringer Ingelheim International GmbH, priority 2022, published 2024)
